In this experiment the target is PL^pro (papain-like protease, domain of nsp3) (Severe acute respiratory syndrome coronavirus 2, UniProt P0DTD1). Description: fluorogenic short peptide protease assay, 384-well. The format is biochemical.

Like-named read-outs stand apart in the source and are kept apart here.

Take `CC1=NN(c2ccc(C)c(C)c2)C(=O)/C1=N/Nc1cccc(-c2cccc(-c3nnn[nH]3)c2)c1O` [DDL-713, thrombopoietin receptor agonist-1]: for the setting “read-out: IC50PLpro, short peptide substrate, 37 °C, 10-60 min preincubation”, the IC50 is ~54 µM.

On to `COc1cc(C(=O)NS(=O)(=O)c2ccccc2C)ccc1Cc1cn(C)c2ccc(NC(=O)OC3CCCC3)cc12` [DDL-715, zafirlukast], for which the IC50 is ~24 µM.

`CC1=NN(c2ccc(C)c(C)c2)C(=O)C1=NNc1cccc(-c2cccc(C(=O)O)c2)c1O` [DDL-701, eltrombopag] displayed an IC50 of 13 µM.

The record behind these values is publication doi:10.1101/2022.07.18.500363v1 (biorxiv, 2022).
